In article PMC4414309, “Target Modulation by a Kinase Inhibitor Engineered to Induce a Tandem Blockade of the Epidermal Growth Factor Receptor (EGFR) and c-Src: The Concept of Type III Combi-Targeting” (PLoS ONE, 2015):

Tests used:
[1] = target: T1, EGFR (Homo sapiens, UniProt P00533); assay: In vitro kinase assay, EGFR; format: biochemical; settings: ATP 50 μM, average of three independent experiments in duplicate, read-out: IC50 EGFR kinase inhibition
T1 construct: purchased Enzo Life Sciences Inc, NY, USA; Signal Chem, Richmond, Canada
Description: (§1) The EGFR and c-Src kinase assays were performed in 96-well plates (NuncMaxisorp) coated with PGT (poly L-glutamic acid L-tyrosine, 4:1, Sigma Aldrich, MO, USA) and incubated at 37°C for 48h prior to using. PGT served as the substrate to be phosphorylated by EGFR (Enzo Life Sciences Inc, NY, USA, Signal Chem, Richmond, Canada) and c-Src (Enzo Life Sciences Inc, NY, USA, Signal Chem, Richmond, Canada) in the presence of ATP (50 μM). […] To each well, 15 ng of EGFR (20 μg/ml) or 6 ng of c-Src (0.1 μg/μl) were added. The phosphorylated substrate was detected using an HRP-conjugated anti-phosphotyrosine antibody (Santa Cruz Biotechnology, CA). The signal was developed by the addition of 3, 3’, 5, 5’-tetramethylbenzidine peroxidase substrate (Kierkegaard and Perry Laboratories, Gaithersburg, MD) and the colorimetric reaction was monitored at 450 nm using a microplate reader ELx808 (BioTek Instruments). The IC50 values were calculated using GraphPad Prism 6.0 (GraphPadSoftware, Inc., San Diego, CA). Each experiment was carried out at least three times, in duplicate.

[2] = target: T2, c-Src (Homo sapiens, UniProt P12931); assay: In vitro kinase assay, c-Src; format: biochemical; settings: ATP 50 μM, read-out: IC50 c-Src kinase inhibition
T2 construct: purchased Enzo Life Sciences Inc, NY, USA; Signal Chem, Richmond, Canada
Description: as §1

[3] = test system: 4T1 cells; assay: Wound-healing assay, 4T1; format: cell-based, mouse; settings: 4T1, 0.1 μM, 24h drug exposure
Description: (§2) MDA-MB-231 and 4T1 cells were plated in 6-well plates (500,000 cells/well) and allowed to attach overnight (37°C, 5% CO2). The following day, media was removed and a cross scratch was made in the middle of the cell monolayer. […] The scratch was visualized at two different time points (0 and 24h) using the Leica DM IL inverted microscope (10X) and images were obtained using the Leica DFC300FX camera.

[4] = test system: MDA-MB-231 cells; assay: Wound-healing assay, MDA-MB-231; format: cell-based, human; settings: MDA-MB-231, 0.1 μM, 24h drug exposure
Description: as §2

[5] = test system: MDA-MB-231 cells; assay: Boyden chamber invasion assay, MDA-MB-231; format: cell-based, human; settings: MDA-MB-231, concentration as low as 0.1 μM, 24h
Description: The invasive property of MDA-MB-231 and 4T1 cells was determined using the Boyden-chamber invasion assay. Cells suspended in serum-free media were plated (120–150,000 cells/well) onto polycarbonate transwell inserts (8 μm pore size, BD Biosciences) coated with matrigel (6%) (BD Biosciences), separating the top and bottom chambers (50 μl/filter). […] The invasive property of cells was observed 24h after treatment by fixing cells in formalin and staining with 0.1% crystal violet (Sigma-Aldrich Canada Ltd). Cells attached on the upper surface of the insert (top chamber) were removed by gently scraping away with a cotton swab, whereas those that invaded onto the lower side of the insert were observed using a microscope (Leica DM IL inverted microscope, 10X). Images of five non-overlapping fields of invading cells were captured using the Leica DFC300FX camera and quantification was done using the Scion Image Analysis (3.53.0.0) software and ImageJ 1.46r software. The results were expressed in terms of percentage of invading cells relative to control and the bar graphs represent the average of three independent experiments.

[6] = test system: NIH3T3 wild type and EGFR transfected cells; assay: Apoptosis by annexin V/PI flow cytometry; format: cell-based, mouse; settings: 48h
Description: NIH3T3 cell lines (wild type and EGFR transfected) were plated in 6-well plates (500,000 cells/well) and allowed to grow overnight (37°C, 5% CO2). […] They were subsequently collected using trypsin (Wisent Inc., St-Bruno, Canada), centrifuged (2000 rpm, 5 min), rinsed with PBS and centrifuged again to obtain a cell pellet. The pellet was re-suspended in binding buffer (1X) and prior to being analyzed, annexin V-FITC and PI stains (eBioscience, San Diego, CA, USA) were added to the cells and incubated for 15 min in the dark at 4°C. Annexin V–FITC and PI binding were analyzed with a Becton Dickinson FACScan. Data were collected using logarithmic amplification of both the FL1 (FITC) and FL2 (PI) channels. Quadrant analysis of coordinate dot plots was done with CellQuestPro software. The experiment was carried out three times.

[7] = test system: NIH3T3-Her14 (EGFR transfected) cells; assay: Absorption and hydrolysis kinetics of AL776 in cells (HPLC); format: in vitro ADME, mouse
Description: NIH3T3-Her14 cells were seeded in 6-well plates (1 x 10^6 cells/well) and grown in DMEM with 10% FBS for 24 h. Cells were then treated with 25 μM of AL776 and incubated at 37°C for 1h, 2h, 6h, 24h or 48h. The media was collected and extracted using twice the volume of methanol, on ice and centrifuged for 20 min at 13,000 rpm at 4°C. The resulting supernatant was filtered, evaporated to dryness and reconstituted with 100 μL of methanol. Cells were collected using trypsin and the cell pellet obtained was rinsed once with PBS and lysed with methanol (500 μL /tube) on ice for 1h. The lysate was centrifuged at 13,000 rpm for 20 min at 4°C and the resulting supernatant was collected into a separate tube and the remaining pellet was subjected to lysis two more times (250 μL /tube). The supernatant from each lysis step were pooled all together, filtered, evaporated to dryness and resuspended in 100 μL of methanol before further analyzing the samples. HPLC analysis was performed using a ACE 5 C18 5 μm column (150 mmx4.6 mm) under elution conditions of gradient 70–75% methanol:water for the first 5 min and isocratic methanol elution until 30 min, using a 0.75 mL/min flow rate. Analyses were performed using a Thermoquest P4000 equipped with a UV2000 detector and an AS300 Autosampler.

[8] = test system: 4T1 tumours; format: in vivo; settings: 40 mg/kg i.v. once/day for 5 days
[9] = test system: 4T1 cells; assay: Growth inhibition, SRB assay, 4T1; settings: Mus musculus, 4T1, 120 h, read-out: IC50 growth inhibition 4T1
Description: Growth inhibition was measured in cells using the sulforhodamine B (SRB) assay [48]. […] The plates were subsequently rinsed with 1% acetic acid, and allowed to dry overnight. […] The results were analyzed using GraphPad Prism 6.0 (GraphPadSoftware, Inc., San Diego, CA) and the sigmoidal dose response curve was used to determine IC50 values. Each experiment was carried out at least four times, in triplicate.

[10] = test system: EGFR phosphorylation in 4T1 tumours; assay: Pharmacodynamics in 4T1 tumours, EGFR phosphorylation; settings: i.v., AL776 40 mg/kg, gefitinib + dasatinib 20 mg/kg each
Description: (§3) Mice were implanted with 4T1 mammary tumour cells, 15 million cells/flank (suspended in 200 μL PBS), subcutaneously.
(§4) Mice were sacrificed 1h or 24h after treatment and their tumours were collected and snap frozen at -80°C for further analysis using western blots. Tumours were crushed using a mortar/pestle chilled using liquid nitrogen and lysed with RIPA buffer diluted to a 1X concentration and supplemented with 1mM PMSF (Cell Signaling Technology, USA). Western blot analysis was carried out with the tumour samples, similar to the method described earlier.

[11] = test system: c-Src phosphorylation in 4T1 tumours; assay: Pharmacodynamics in 4T1 tumours, c-Src phosphorylation; settings: i.v., AL776 40 mg/kg, gefitinib + dasatinib 20 mg/kg each
Description: as §3, §4

T2 sequence (P12931 whole entry): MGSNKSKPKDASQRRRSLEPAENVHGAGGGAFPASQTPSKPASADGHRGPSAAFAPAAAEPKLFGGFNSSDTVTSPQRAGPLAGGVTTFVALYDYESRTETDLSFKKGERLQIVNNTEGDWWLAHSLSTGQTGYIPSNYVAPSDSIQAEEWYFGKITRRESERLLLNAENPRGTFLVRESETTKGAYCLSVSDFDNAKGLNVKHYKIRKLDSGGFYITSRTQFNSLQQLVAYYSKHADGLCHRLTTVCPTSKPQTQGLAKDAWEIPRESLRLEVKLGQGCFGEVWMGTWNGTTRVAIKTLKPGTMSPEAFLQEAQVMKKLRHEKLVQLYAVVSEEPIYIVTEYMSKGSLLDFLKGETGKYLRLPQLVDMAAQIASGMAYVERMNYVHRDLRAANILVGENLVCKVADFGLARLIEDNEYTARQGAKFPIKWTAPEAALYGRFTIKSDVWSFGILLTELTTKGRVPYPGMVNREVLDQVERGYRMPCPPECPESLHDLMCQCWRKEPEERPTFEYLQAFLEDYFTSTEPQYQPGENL
T1 sequence (P00533 25-1210): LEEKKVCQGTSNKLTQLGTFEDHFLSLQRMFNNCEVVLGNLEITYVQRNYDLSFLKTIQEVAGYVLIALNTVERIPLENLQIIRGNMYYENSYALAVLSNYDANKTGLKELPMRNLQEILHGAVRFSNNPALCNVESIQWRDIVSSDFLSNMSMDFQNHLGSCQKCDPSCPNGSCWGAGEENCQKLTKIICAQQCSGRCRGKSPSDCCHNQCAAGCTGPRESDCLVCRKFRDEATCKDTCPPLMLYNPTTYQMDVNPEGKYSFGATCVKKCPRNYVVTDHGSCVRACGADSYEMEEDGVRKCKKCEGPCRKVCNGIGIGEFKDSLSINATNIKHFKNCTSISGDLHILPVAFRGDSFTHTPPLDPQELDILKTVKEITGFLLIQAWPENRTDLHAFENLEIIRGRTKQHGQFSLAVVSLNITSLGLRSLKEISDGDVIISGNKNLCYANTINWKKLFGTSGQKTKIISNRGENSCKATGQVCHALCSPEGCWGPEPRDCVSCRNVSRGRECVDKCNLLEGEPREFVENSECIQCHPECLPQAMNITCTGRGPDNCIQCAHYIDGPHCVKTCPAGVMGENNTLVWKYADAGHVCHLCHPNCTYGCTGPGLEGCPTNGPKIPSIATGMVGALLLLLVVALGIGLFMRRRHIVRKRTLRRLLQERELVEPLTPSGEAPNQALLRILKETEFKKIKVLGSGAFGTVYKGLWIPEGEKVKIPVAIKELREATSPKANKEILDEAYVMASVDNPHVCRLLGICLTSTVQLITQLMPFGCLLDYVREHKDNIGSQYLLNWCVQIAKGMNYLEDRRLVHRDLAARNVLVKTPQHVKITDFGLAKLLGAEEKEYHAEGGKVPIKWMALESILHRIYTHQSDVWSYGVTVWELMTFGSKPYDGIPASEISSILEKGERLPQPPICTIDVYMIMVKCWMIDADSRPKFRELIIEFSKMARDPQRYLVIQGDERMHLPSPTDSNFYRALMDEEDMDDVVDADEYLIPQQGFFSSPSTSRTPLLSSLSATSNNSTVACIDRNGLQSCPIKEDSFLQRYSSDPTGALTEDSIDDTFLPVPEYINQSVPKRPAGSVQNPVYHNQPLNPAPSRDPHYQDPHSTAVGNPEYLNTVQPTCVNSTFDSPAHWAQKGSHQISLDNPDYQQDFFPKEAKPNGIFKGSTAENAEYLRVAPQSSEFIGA

Cc1nc(Nc2ncc(C(=O)Nc3c(C)cccc3Cl)s2)cc(N2CCN(CCOC(=O)CCC(=O)OCCN(C)Cc3ccc(C(=O)Nc4ccc5ncnc(Nc6cccc(Cl)c6)c5c4)cc3)CC2)n1 [AL776]
IC50 [1]: 120 nM | IC50 [2]: 3 nM | Effect on wound-closure [3]: blocked wound-closure | Effect on wound-closure [4]: blocked wound-closure | Effect on invasion [5]: strongly inhibited invasion | Level of apoptosis (early + late) ([6]; 1μM dose): higher level of apoptosis than gefitinib or dasatinib | Lowest concentration inducing apoptosis [6]: 1 µM | Detection of AL776 in cells and extracellular medium ([7]; 25 μM, 24–48h): detectable inside the cells but not in the extracellular medium | Intact AL776 found in the cells ([7]; 24h): 50% | Tumour mass at end of study, control versus treated [8]: no difference observed | Effect on tumour growth (tumour volume) ([8]; monitored two weeks): unable to block tumour growth | IC50 [9]: 70 ± 10 nM | Inhibition of EGFR phosphorylation in tumours ([10]; 1h post-administration): strong blockade | Inhibition of EGFR phosphorylation in tumours ([10]; 24 h post-treatment): reversed | Inhibition of c-Src phosphorylation in tumours ([11]; 1h post-administration): strong blockade | Inhibition of c-Src phosphorylation in tumours ([11]; 24 h post-treatment): reversed
